In a melting point compilation (Tetko et al.; mined from patent text by program, amines drawn as free bases though some values may be those of a salt):

First: Cc1nn2c(CCCOc3ccc(NCCC(=O)O)cc3)n[nH]c2c1Cl
Second: CN(C)c1c(Cl)cc(C(O)C#Cc2ccc(C(=O)O)cc2)cc1C(C)(C)C (centres undefined)
The melting point of the first is higher: 151 to 153 °C for the first, 120 °C for the second.

First: CON=C(c1cnco1)c1ccccc1COc1cc(C)ccc1C
Second: Clc1ccccc1Cc1nc2cccc(CCc3nccs3)c2o1
The melting point of the first is higher: 90 to 91 °C for the first, 64 to 66 °C for the second.

First: CC(=O)Nc1cccc2c(OC(C)=O)c(S(=O)(=O)NC(C)(C)C)ccc12
Second: C=C(C)CNc1cc(C(=O)O)cc(S(N)(=O)=O)c1Sc1ccc(NC(C)=O)cc1
The melting point of the first is higher: 203 to 206 °C for the first, 193 to 195 °C for the second.

First: CC(N)=CC(=O)CS(=O)(=O)N(C)Cc1ccccc1
Second: O=C(O)c1ccc2c(c1)S(=O)(=O)c1ccccc1S2=O (centres undefined)
The melting point of the first is lower: 115 to 118 °C for the first, 340 to 343 °C for the second.

First: O=C(CC(c1ccccc1)c1ccccc1)NC(Cc1ccccc1)C(=O)O (centres undefined)
Second: Oc1ccc(/C(=C(\c2ccccc2)C(F)(F)F)c2ccccc2)cc1
The melting point of the first is higher: 138 to 140 °C for the first, 113 to 120 °C for the second.

First: N#Cc1cc(C(=O)NNC(=O)c2occ(-c3ccncc3)c2-c2ccccc2)ccc1O
Second: CC1=C(C(=O)OCCN(C)Cc2ccccc2)C(c2ccccc2C#N)c2c(ccnc2OC(C)C)N1 (centres undefined)
The melting point of the first is higher: 179 to 181 °C for the first, 120 to 122 °C for the second.

First: Cc1nc[nH]c1CSCCNC(=S)S
Second: Cc1nc(C)c(CCl)cc1CCl
The melting point of the first is higher: 127 to 129 °C for the first, 108 to 109 °C for the second.

First: O=C(CCCO)c1cccnc1
Second: CCc1nc(-c2ccc(OC)cc2)c(-c2cccnc2)s1
The melting point of the first is lower: 36 to 37 °C for the first, 59 to 60 °C for the second.

First: S=C(NCCCCN(Cc1ccc(Cl)c(Cl)c1)c1ccccn1)NCCCn1ccnc1
Second: O=C1c2cc(OCc3ccccn3)ccc2CC1Cc1ccccc1 (centres undefined)
The melting point of the first is higher: 112 to 114 °C for the first, 94 to 97 °C for the second.

First: COc1ccc(-n2c(=O)n(OCc3ccccc3)c(=O)c3cc(F)c(F)cc32)cc1
Second: COc1ccc(SCc2ccc(-c3csnn3)cc2)cc1
The melting point of the first is higher: 211 to 212 °C for the first, 117 to 119 °C for the second.

First: CC(C)C1(CO)Cc2cc(OCC(=O)O)c(Cl)c(Cl)c2C1=O (centres undefined)
Second: CCCc1ccc(OCC(C)O)c2c(=O)cc(C(=O)O)oc12 (centres undefined)
The melting point of the first is higher: 200 to 202 °C for the first, 134 to 136 °C for the second.

Compared with `CCOc1nn(-c2cccc3c2OC(C)(C)C3)c(=O)o1`, `CCCN(CCC)Cc1coc(-c2ncn3c2CN(C)C(=O)c2c(Cl)cccc2-3)n1` is higher in melting point: 72 to 74 °C for the first, 105 to 107 °C for the second.

`COc1cc(CCCN(C)Cc2ccc(OC)c(OC)c2)ccc1NC(=O)c1cccc2c(=O)c3cccc(F)c3[nH]c12` and `CCCOc1cc(NC(=O)C[C@H]2O[C@H](c3cccc(OC)c3OC)c3cc(Cl)ccc3N(CC(C)(C)CO)C2=O)cc2cc(C(=O)O)oc12` cannot be ordered by melting point: 170 to 190 °C for the first, 175 to 177 °C for the second.

Compared with `CCn1cc(C(=O)O)c(=O)c2cc(F)c(N3CCNC(c4cc(C)sc4C)C3)cc21` (centres undefined), `CCn1cc(C(=O)NCc2ccc(Cl)cc2)c(=O)c2cc(C#CCOC(=O)c3cccc(CN4CCOCC4)c3)sc21` is lower in melting point: 248 to 250 °C for the first, 147 to 150 °C for the second.

Compared with `[N-]=[N+]=NCC(=O)N1CC(c2ccccc2)c2ccccc21` (centres undefined), `CCNC(=O)c1ccc(CN2C(=O)C3(COc4cc5c(cc43)CCO5)c3ccccc32)cc1` (centres undefined) is higher in melting point: 72 to 73 °C for the first, 190 to 191 °C for the second.

Compared with `NCc1ccc2c(c1)C(=O)c1ccccc1C2=O`, `CC(C)C[C@H](NC(=O)OC(C)(C)C)C(=O)NCC(=O)OCCCNc1cccc2c1C(=O)c1ccccc1C2=O` is lower in melting point: 170 to 178 °C for the first, 86 °C for the second.

First: OCC1OC(n2cnc3c(NNC4COc5ccccc5C4)ncnc32)C(O)C1O (centres undefined)
Second: Nc1sc2c(c1C(=O)c1ccc3c(c1)Cc1ccccc1-3)CCC2
The melting point of the first is lower: 109 to 112 °C for the first, 176 to 182 °C for the second.

Compared with `CCCC1=Cc2c3c(c(C)c(C)c2C1=O)OC(C(=O)O)C3` (centres undefined), `Cc1c(O)ccc2cc(Br)ccc12` is lower in melting point: 212 °C for the first, 127 to 129 °C for the second.

First: N#Cc1nn(-c2c(Cl)cc(C(F)(F)F)cc2Cl)c(N)c1C=NO
Second: Nc1ccncc1-c1n[nH]c2ccccc12
The melting point of the first is lower: 175 to 178 °C for the first, 237 to 239 °C for the second.

Work on `Fc1ccc([C@H]2CC[C@H](N3CCN(Cc4ccc5ccccc5n4)CC3)CC2)cc1` yielded a melting point of 160 to 162 °C.
